Data: patent US5308844A, “Substituted 3-piperazinylalkyl-2,3-dihydro-4H-1,3-benzoxazin-4-ones and their use in therapy” (Pierre Fabre Medicament, priority 1991, dated 1994)
Counter-ions that a name gives are not always drawn.

molecular target: T1, 5HT1 A receptors (Rattus norvegicus, UniProt P19327); assay: 5HT1 A binding (3H-8-OH-DPAT, hippocampus membranes); set-up: species or system Male Charles River rats; details: 3H-8-OH-DPAT ligand 1 nM, 30 min at 25° C.
T1 construct: The hippocampus is ground in a Polytrone; from tissue; host or cells: rat hippocampus membranes (male Charles River rats)
T1 sequence (P19327 1-422): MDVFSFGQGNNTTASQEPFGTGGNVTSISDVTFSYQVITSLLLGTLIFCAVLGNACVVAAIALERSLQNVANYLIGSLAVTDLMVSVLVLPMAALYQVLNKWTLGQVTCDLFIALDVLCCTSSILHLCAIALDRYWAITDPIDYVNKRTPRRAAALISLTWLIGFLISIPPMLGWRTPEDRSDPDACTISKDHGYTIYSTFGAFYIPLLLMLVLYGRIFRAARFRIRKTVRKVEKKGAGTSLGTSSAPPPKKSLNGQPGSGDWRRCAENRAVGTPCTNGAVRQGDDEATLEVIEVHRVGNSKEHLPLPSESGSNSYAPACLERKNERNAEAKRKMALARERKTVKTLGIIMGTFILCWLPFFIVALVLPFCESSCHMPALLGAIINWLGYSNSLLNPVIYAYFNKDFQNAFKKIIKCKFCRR
Description: The 5HT1 A binding studies were carried out according to the technique of Peroutka (cf. Peroutka S. J., J. Neurochem. 47, p. 529-40, 1986). Male Charles River rats are stunned and decapitated, and the brain is removed and dissected. The different cerebral areas obtained are used or preserved at […]. The hippocampus is ground in a Polytrone® (20 seconds at 7) in 20 volumes of 50 mM tris HCl buffer pH 7.7 at 25° C.) and centrifuged at 45000 g for 10 min. The pellet is separated, taken up in the same volume of tris buffer and incubated for 10 min at 37° C. and then recentrifuged for 10 min at 45000 g. The pellet is finally taken up in 100 volumes of tris HCl buffer containing 10 μM of pargyline, 4 mM of CaCl2 and 0.1% of ascorbic acid. The mixture obtained is homogenized in a Dounce.
The binding is carried out starting with 0.8 ml of the above membrane suspension to which 0.1 ml of ^3 H-8-OH-DPAT ligand (at a concentration of 1 nM) and either 0.1 ml of tris buffer (control) or the compound of the above invention is added. After incubation for 30 min at 25° C., the mixture is filtered on GF/B (Whatman) and rinsed with 5 ml of cold tris HCl buffer. The residue and the filter are then introduced into a vial containing 3 ml of Instagel liquid scintillant (Packard) and the radioactivity is measured in a Packard counter (Tri-Carbs).
The IC50 are determined graphically for a concentration of ligand of 1 nM.
Table I gives the IC50 for the 5HT1 A receptors for certain derivatives of the invention by way of nonlimiting example.

Row | Compound | IC50 [nM]
1 | O=C1c2ccccc2OCN1CCCCN1CCN(c2cccc(C(F)(F)F)c2)CC1 [Example 1, Monohydrochloric 3-dihydro-3-[4-(4-(3-trifluoromethylphenyl)piperazinyl)butyl]-4H-1,3-benzoxazin-4-one] | 7
2 | COc1ccccc1N1CCN(CCN2COc3ccccc3C2=O)CC1 [Example 5, Dihydrochloride of 2,3-dihydro-3-[2-(4-(2-methoxyphenyl)piperazinyl)ethyl]-4H-1,3-benzoxazin-4-one] | 5
3 | COc1ccccc1N1CCN(CCN2COc3ccc(Cl)cc3C2=O)CC1 [Example 14, Hydrochloride of 6-chloro-2.3-dihydro-3-[2-(4-(2-methoxyphenyl)piperazinyl)ethyl]-4H-1,3-benzoxazin-4-one] | 5
4 | COc1ccc2c(c1)C(=O)N(CCN1CCN(c3ccccc3OC)CC1)CO2 [Example 15, Hydrochloride of 6-methoxy-2,3-dihydro-3-[2-(4-(2-methoxyphenyl)piperazinyl)ethyl]-4H-1,3-benzoxazin-4-one] | 2.2

system: not listed separately; assay: solubility; assay type: physicochemical; details: in DMSO

Row | Compound | soluble in DMSO up to
5 | CC1Oc2ccccc2C(=O)N1CCN1CCN(c2cccc(C(F)(F)F)c2)CC1 (racemic) [Example 19, Hydrate of the (dl) hydrochloride of 2.3-dihydro-2-methyl-3-[2-(4-(3-trifluoromethylphenyl)piperazinyl)ethyl]-4H-1,3-benzoxazin-4-one] | up to 2%
6 | O=C1c2ccccc2OCN1CCCCN1CCN(c2cccc(C(F)(F)F)c2)CC1 [Example 1, Monohydrochloric 3-dihydro-3-[4-(4-(3-trifluoromethylphenyl)piperazinyl)butyl]-4H-1,3-benzoxazin-4-one] | up to 6%
7 | COc1ccccc1N1CCN(CCN2COc3ccc(C)cc3C2=O)CC1 [Example 13, Hydrochloride of 2.3-dihydro-6-methyl-3-[2-(4-(2-methoxyphenyl)piperazinyl)ethyl]-4H-1,3-benzoxazin-4-one] | up to 3%
8 | COc1ccccc1N1CCN(CCN2COc3ccc(Cl)cc3C2=O)CC1 [Example 14, Hydrochloride of 6-chloro-2.3-dihydro-3-[2-(4-(2-methoxyphenyl)piperazinyl)ethyl]-4H-1,3-benzoxazin-4-one] | up to 1%
9 | COc1ccc2c(c1)C(=O)N(CCN1CCN(c3ccccc3OC)CC1)CO2 [Example 15, Hydrochloride of 6-methoxy-2,3-dihydro-3-[2-(4-(2-methoxyphenyl)piperazinyl)ethyl]-4H-1,3-benzoxazin-4-one] | up to 1.3%
10 | COc1ccc2c(c1)C(=O)N(CCN1CCN(c3cccc(C(F)(F)F)c3)CC1)CO2 [Example 16, Hydrochloride of 2.6-dihydro-6-methoxy-3-[2-(4-(3-trifluoromethylphenyl)piperazinyl)ethyl]-4H-1,3-benzoxazin-4-one] | up to 7%
11 | COc1ccc(N2CCN(CCCCN3COc4cc(OC)c(OC)cc4C3=O)CC2)cc1OC [Example 18, Hydrochloride of 2.3-dihydro-6,7-dimethoxy-3-[4-(4-(3,4-dimethoxyphenyl)piperazinyl)butyl]-4H-1,3-benzoxazin-4-one] | up to 2%

Other lines, results leading:

Row | soluble in DMSO up to | Compound
12 | up to 10% | O=C1c2ccccc2OCN1CCN1CCN(c2cccc(Cl)c2)CC1 [Example 9, Hydrochloride of 2.3-dihydro-3-[2-(4-(3-chlorophenyl)piperazinyl)ethyl]-4H-1,3-benzoxazin-4-one]
13 | up to 7% | O=C1c2ccccc2OCN1CCN1CCN(c2cccc(C(F)(F)F)c2)CC1 [Example 10]

same assay, conditions: in water

Row | Compound | soluble in water up to
14 | COc1ccccc1N1CCN(CCN2COc3ccccc3C2=O)CC1 [Example 5 monohydrochloride] | up to 0.9%
15 | COc1ccccc1N1CCN(CCN2COc3ccccc3C2=O)CC1 [Example 5, Dihydrochloride of 2,3-dihydro-3-[2-(4-(2-methoxyphenyl)piperazinyl)ethyl]-4H-1,3-benzoxazin-4-one] | up to 6%

same assay, conditions: water, in water; read-out: soluble in water up to

Row | Compound | solubility [µg/mL]
16 | COc1ccccc1N1CCN(CCCCN2COc3ccccc3C2=O)CC1 [Example 7, Monohydrate of the dihydrochloride of 2,3-dihydro-3-[4-(4-(2-methoxyphenyl)piperazinyl)butyl]-4H-1,3-benzoxazin-4-one] | ≤ 30000
17 | COc1cc2c(cc1OC)C(=O)N(CCCCN1CCN(c3ccccc3OC)CC1)CO2 [Example 17, Hydrochloride of 2.3-dihydro-6,7-dimethoxy-3-[4-(4-(2-methoxyphenyl)piperazinyl)butyl]-4H-1,3-benzoxazin-4-one] | ≤ 2000

Second part, the molecule after the results:

Row | solubility [µg/mL] | Compound
18 | ≤ 10000 | O=C1c2ccccc2OCN1CCCN1CCN(c2ccccc2)CC1 [Example 2, Monohydrochloride of 2,3-dihydro-3-[3-(4-phenylpiperazinyl)propyl]-4H-1,3-benzoxazin-4-one]
19 | ≤ 10000 | O=C1c2ccccc2OCN1CCN1CCN(c2ccccc2)CC1 [Example 3, Dihydrochloride of 2,3-dihydro-3-[2-(4-phenylpiperazinyl)ethyl]-4H-1,3-benzoxazin-4-one]
20 | ≤ 5000 | O=C1c2ccccc2OCN1CCCCN1CCN(c2ccccc2)CC1 [Example 4, Hydrochloride of 2.3-dihydro-3-[4-(4-phenylpiperazinyl)butyl]-4H-1,3-benzoxazin-4-one]
21 | ≤ 5000 | COc1ccccc1N1CCN(CCCN2COc3ccccc3C2=O)CC1 [Example 6, Hydrochloride of 2,3-dihydro-3-[3-(4-(2-methoxyphenyl)piperazinyl)propyl]-4H-1,3-benzoxazin-4-one]
22 | ≤ 3500 | Cc1ccccc1N1CCN(CCN2COc3ccccc3C2=O)CC1 [Example 8, Monohydrochloride of 2,3-dihydro-3-[2-(4-(2-methylphenyl)piperazinyl)ethyl]-4H-1,3-benzoxazin-4-one]
23 | ≤ 3000 | O=C1c2ccccc2OCN1CCN1CCN(c2ccccn2)CC1 [Example 11, Hydrochloride of 2,3-dihydro-3-[2-(4-(2-pyridinyl)piperazinyl)ethyl]-4H-1,3-benzoxazin-4-one]
24 | ≤ 12000 | O=C1c2ccccc2OCN1CCN1CCN(c2ncccn2)CC1 [Example 12, Hydrochloride of 2,3-dihydro-3-[2-(4-(2-pyrimidinyl)piperazinyl)ethyl]-4H-1,3-benzoxazin-4-one]
